Experimental data from ChEMBL document CHEMBL1144554, “In vitro cytotoxicity evaluation of some substituted isatin derivatives” (Bioorg Med Chem, 2007).
Blank lines part the entries; values can stand above or below the compound they belong to. Calls of active or inactive are those of the source. The rule behind the calls is not given here.

What was measured:
U-937 = assay: Cytotoxicity against human U937 cells; format: ADME, cell-based
[1] = biological target: Cyclin-dependent kinase 2 (Homo sapiens) (UniProt P24941); assay: Inhibition of CDK2 at 100 uM
MDA-MB-231 = assay: Cytotoxicity against human MDA-MB-231 cells; format: cell-based
Jurkat = assay: Cytotoxicity against human Jurkat cells; format: cell-based
PC-3 = assay: Cytotoxicity against human PC3 cells; format: cell-based
MCF7 = assay: Cytotoxicity against human MCF7 cells; format: cell-based
HCT-116 = assay: Cytotoxicity against human HCT116 cells; format: cell-based
Caspase-3 (Homo sapiens) = biological target: T1, Caspase-3 (Homo sapiens) (UniProt P42574); assay: Activation of caspase 3 in Jurkat cells after 5 hr by apoptosis assay; format: cell-based
T1 sequence (whole entry): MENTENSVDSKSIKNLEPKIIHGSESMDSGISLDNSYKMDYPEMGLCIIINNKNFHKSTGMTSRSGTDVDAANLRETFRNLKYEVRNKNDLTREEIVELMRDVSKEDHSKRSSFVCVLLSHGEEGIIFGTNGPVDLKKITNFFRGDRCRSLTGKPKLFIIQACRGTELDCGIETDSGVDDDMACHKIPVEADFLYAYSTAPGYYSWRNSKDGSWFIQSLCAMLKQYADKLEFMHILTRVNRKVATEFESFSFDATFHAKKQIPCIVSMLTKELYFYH

Caspase-7 (Homo sapiens) = biological target: T2, Caspase-7 (Homo sapiens) (UniProt P55210); assay: Activation of caspase 7 in Jurkat cells after 5 hrs by apoptosis assay; format: cell-based
T2 sequence (whole entry): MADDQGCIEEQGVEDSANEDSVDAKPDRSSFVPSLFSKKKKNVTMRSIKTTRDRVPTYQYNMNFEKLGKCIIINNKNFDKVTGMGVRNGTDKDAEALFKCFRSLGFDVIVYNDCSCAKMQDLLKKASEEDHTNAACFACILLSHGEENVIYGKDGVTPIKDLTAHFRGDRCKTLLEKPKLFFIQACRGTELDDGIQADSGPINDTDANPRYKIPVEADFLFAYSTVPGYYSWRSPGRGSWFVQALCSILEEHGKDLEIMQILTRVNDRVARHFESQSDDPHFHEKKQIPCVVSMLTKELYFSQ

Structure (SMILES): O=C1Nc2ccc([N+](=O)[O-])cc2C1=O [5-NITROISATIN]
IC50 (U-937): 132 µM

Structure (SMILES): O=C1Nc2c(Br)cccc2C1=O
IC50 (U-937): 83 µM

Structure (SMILES): O=C1Nc2ccc(Br)cc2C1=O
IC50 (U-937): 64.5 µM

Structure (SMILES): Oc1[nH]c2ccccc2c1/N=N/c1ccccc1
IC50 (U-937): > 211 µM

Structure (SMILES): O=C1Nc2ccc(I)cc2C1=O [5-IODOISATIN]
IC50 (U-937): 53.4 µM

Structure (SMILES): O=C1Nc2ccccc2C1=O [ISATIN]
IC50 (U-937): 565 µM

Structure (SMILES): O=C1Nc2ccc(F)cc2C1=O [5-FLUOROISATIN]
IC50 (U-937): 98.4 µM

Structure (SMILES): O=C1Nc2cc(Br)c([N+](=O)[O-])cc2C1=O
IC50 (U-937): 17.1 µM

Structure (SMILES): O=C1Nc2c(Br)cc(Br)cc2/C1=N/c1ccccc1
IC50 (U-937): 13.7 µM

Structure (SMILES): CN1C(=O)C(=O)c2ccccc21
IC50 (U-937): 238 µM

Structure (SMILES): O=C1Nc2cccc(Br)c2C1=O
IC50 (U-937): 214 µM

inhibition [1]: 44%
Structure (SMILES): O=C1Nc2c(Br)cc(Br)cc2C1=O

Structure (SMILES): O=C1Nc2c(I)cc(I)cc2C1=O
IC50 (MDA-MB-231): 41.8 µM
IC50 (Jurkat): 20.9 µM
IC50 (PC-3): 71.9 µM
IC50 (MCF7): 18.4 µM
IC50 (U-937): 7.85 µM
IC50 (HCT-116): 24 µM

Structure (SMILES): O=C1Nc2c(cc(Br)cc2[N+](=O)[O-])C1=O
IC50 (U-937): 257 µM

Structure (SMILES): O=C1Nc2cc(Br)c(Br)cc2C1=O
IC50 (MDA-MB-231): 41.7 µM
IC50 (Jurkat): 20.2 µM
IC50 (PC-3): 41 µM
IC50 (MCF7): 20.2 µM
IC50 (U-937): 11.6 µM
IC50 (HCT-116): 37.3 µM

Structure (SMILES): COc1ccc2c(c1)C(=O)C(=O)N2 [5-METHOXYISATIN]
IC50 (U-937): 420 µM

Structure (SMILES): O=C1Nc2cc(Br)ccc2C1=O
IC50 (U-937): 74.8 µM

Structure (SMILES): O=C1Nc2c(Br)cc([N+](=O)[O-])cc2C1=O
IC50 (U-937): > 369 µM

Activity (Caspase-3 (Homo sapiens)): Active
Activity (Caspase-7 (Homo sapiens)): Active
Structure (SMILES): O=C1Nc2c(cc(Br)c(Br)c2Br)C1=O
IC50 (MDA-MB-231): 21.8 µM
IC50 (Jurkat): 5.8 µM
IC50 (PC-3): 25.9 µM
IC50 (MCF7): 13.3 µM
IC50 (U-937): 6.76 µM
IC50 (HCT-116): 15.9 µM
